Test results taken from ChEMBL document CHEMBL3751843, “Development of glycine-α-methyl-proline-containing tripeptides with neuroprotective properties” (Eur J Med Chem, 2016).
Blank lines part the entries; values can stand above or below the molecule they belong to. Activity calls are given as the source filed them. The rule behind the calls is not given here. Where a SMILES comes first, the peptide text is derived from it. [ ]: non-standard residue; d: D form. αMeP = C[C@@]1(C(=O)O)CCCN1

Legend:
SH-SY5Y [1] = test: Neuroprotective against IFNgamma/LPS stimulated THP1 condition medium-induced neurotoxicity in human SH-SY5Y cells assessed as increase in cytoplasmic IkappaBalpha level pretreated for 1 hr followed by addition of THP1 conditioned medium by western blot analysis; type: functional, cell-based
[2] = Metabolic stability in human plasma assessed as half life by HPLC analysis; type: ADME, cell-free
SH-SY5Y [3] = test: Neuroprotective against IFNgamma/LPS stimulated THP1 condition medium-induced neurotoxicity in human SH-SY5Y cells assessed as NO production per 10^6 cells at 10 nM for 1 hr followed by addition of THP1 conditioned medium by griess assay (reference value: 3.75 +/- 0.14 micromol/L); type: functional
SH-SY5Y [4] = test: Neuroprotective against IFNgamma/LPS stimulated THP1 condition medium-induced neurotoxicity in human SH-SY5Y cells assessed as NO production per 10^6 cells at 100 uM for 1 hr followed by addition of THP1 conditioned medium by griess assay (reference value: 3.75 +/- 0.14 micromol/L); type: functional
SH-SY5Y [5] = test: Neuroprotective against IFNgamma/LPS stimulated THP1 condition medium-induced neurotoxicity in human SH-SY5Y cells assessed as NO production per 10^6 cells at 100 nM for 1 hr followed by addition of THP1 conditioned medium by griess assay (reference value: 3.75 +/- 0.14 micromol/L); type: functional
SH-SY5Y [6] = test: Neuroprotective against IFNgamma/LPS stimulated THP1 condition medium-induced neurotoxicity in human SH-SY5Y cells assessed as NO production per 10^6 cells at 10 uM for 1 hr followed by addition of THP1 conditioned medium by griess assay (reference value: 3.75 +/- 0.14 micromol/L); type: functional
SH-SY5Y [7] = test: Neuroprotective against IFNgamma/LPS stimulated THP1 condition medium-induced neurotoxicity in human SH-SY5Y cells assessed as NO production per 10^6 cells at 1 uM for 1 hr followed by addition of THP1 conditioned medium by griess assay (reference value: 3.75 +/- 0.14 micromol/L); type: functional
SH-SY5Y [8] = test: Neuroprotective against IFNgamma/LPS stimulated THP1 condition medium-induced neurotoxicity in human SH-SY5Y cells assessed as decrease in iNOS expression at 100 uM pretreated for 1 hr followed by addition of THP1 conditioned medium by western blot analysis; type: functional, cell-based
SH-SY5Y [9] = test: Neuroprotective against IFNgamma/LPS stimulated THP1 condition medium-induced neurotoxicity in human SH-SY5Y cells assessed as increase in nNOS expression at 100 uM pretreated for 1 hr followed by addition of THP1 conditioned medium by western blot analysis; type: functional, cell-based
SH-SY5Y [10] = test: Neuroprotective activity against human SH-SY5Y cells assessed as inhibition of IFNgamma/LPS stimulated THP1 condition medium-induced cytotoxicity measured as cell viability at 100 uM for 1 hr followed by addition of THP1 conditioned medium for 24 hrs by LDH assay relative to control; type: functional
SH-SY5Y [11] = test: Effect on NO production in human SH-SY5Y cells by greiss assay; type: functional, cell-based
SH-SY5Y [12] = test: Neuroprotective against IFNgamma/LPS stimulated THP1 condition medium-induced neurotoxicity in human SH-SY5Y cells assessed as reduced iNOS activity at 100 uM pretreated for 1 hr followed by addition of THP1 conditioned medium; type: functional, cell-based
SH-SY5Y [13] = test: Neuroprotective against IFNgamma/LPS stimulated THP1 condition medium-induced neurotoxicity in human SH-SY5Y cells assessed as decrease in apoptosis at 100 uM for 1 hr followed by addition of THP1 conditioned medium by annexinV/PI staining based flow cytometry; type: functional, cell-based
SH-SY5Y [14] = test: Cytotoxicity against human SH-SY5Y cells at 0.1 to 100 uM after 24 hrs by MTT assay; type: cell-based
SH-SY5Y [15] = test: Neuroprotective activity against human SH-SY5Y cells assessed as inhibition of IFNgamma/LPS stimulated THP1 condition medium-induced cytotoxicity measured as cell viability at 100 uM for 1 hr followed by addition of THP1 conditioned medium for 24 hrs by LDH assay in presence of 1 uM dexamethasone; type: functional, cell-based
SH-SY5Y [16] = test: Neuroprotective against IFNgamma/LPS stimulated THP1 condition medium-induced neurotoxicity in human SH-SY5Y cells assessed as increase in cytoplasmic IkappaBalpha level at 100 uM pretreated for 1 hr followed by addition of THP1 conditioned medium by western blot analysis; type: functional, cell-based
SH-SY5Y [17] = test: Neuroprotective against IFNgamma/LPS stimulated THP1 condition medium-induced neurotoxicity in human SH-SY5Y cells assessed as increase in nNOS activity at 100 uM pretreated for 1 hr followed by addition of THP1 conditioned medium; type: functional, cell-based
SH-SY5Y [18] = test: Neuroprotective against IFNgamma/LPS stimulated THP1 condition medium-induced neurotoxicity in human SH-SY5Y cells assessed as inhibition of RelA/p65 nuclear translocation at 100 uM pretreated for 1 hr followed by addition of THP1 conditioned medium by western blot analysis; type: functional, cell-based

Compound: CN1C(=O)[C@]23CC4=CC=C[C@H](O)[C@H]4N2C(=O)[C@@]1(CO)SS3
Activity (SH-SY5Y [1]): Active

Compound: N=C(N)NCCC[C@H](NC(=O)[C@@H]1CCCN1C(=O)CN)C(=O)O (H-Gly-Pro-Arg-OH)
half-life [2]: 0.0658 days | Activity (SH-SY5Y [3]): 3.72 µmol/L | Activity (SH-SY5Y [4]): 2.64 µmol/L | Activity (SH-SY5Y [5]): 3.74 µmol/L | Activity (SH-SY5Y [6]): 3.05 µmol/L | Activity (SH-SY5Y [7]): 3.68 µmol/L

Compound: C[C@@]1(C(=O)N[C@@H](Cc2cnc[nH]2)C(=O)O)CCCN1C(=O)CN (H-Gly-[αMeP]-His-OH)
half-life [2]: 4.94 days | inhibition (SH-SY5Y [8]): Active | Activity (SH-SY5Y [9]): Active | Activity (SH-SY5Y [3]): 3.81 µmol/L | Activity (SH-SY5Y [10]): 70% | Activity (SH-SY5Y [11]): inactive | inhibition (SH-SY5Y [12]): Active | Activity (SH-SY5Y [4]): 2.38 µmol/L | Activity (SH-SY5Y [5]): 3.76 µmol/L | inhibition (SH-SY5Y [13]): Active | Activity (SH-SY5Y [6]): 2.96 µmol/L | Activity (SH-SY5Y [16]): Active | Activity (SH-SY5Y [14]): Non-toxic | Activity (SH-SY5Y [7]): 3.74 µmol/L | Activity (SH-SY5Y [15]): Active | Activity (SH-SY5Y [17]): Active | inhibition (SH-SY5Y [18]): Active

Now from value to molecule, other results behind:

half-life [2]: 5.51 days
Compound: C[C@@]1(C(=O)N[C@@H](CCCNC(=N)N)C(=O)O)CCCN1C(=O)CN (H-Gly-[αMeP]-Arg-OH)
inhibition (SH-SY5Y [8]): Active | Activity (SH-SY5Y [9]): Active | Activity (SH-SY5Y [3]): 3.78 µmol/L | Activity (SH-SY5Y [10]): 70% | Activity (SH-SY5Y [11]): inactive | inhibition (SH-SY5Y [12]): Active | Activity (SH-SY5Y [4]): 2.92 µmol/L | Activity (SH-SY5Y [5]): 3.71 µmol/L | inhibition (SH-SY5Y [13]): Active | Activity (SH-SY5Y [6]): 3.57 µmol/L | Activity (SH-SY5Y [14]): Non-toxic | Activity (SH-SY5Y [7]): 3.72 µmol/L | Activity (SH-SY5Y [15]): Active

half-life [2]: 2.15 days
Compound: C[C@@]1(C(=O)N[C@@H](CCCCN)C(=O)O)CCCN1C(=O)CN (H-Gly-[αMeP]-Lys-OH)
inhibition (SH-SY5Y [8]): Active | Activity (SH-SY5Y [9]): Active | Activity (SH-SY5Y [3]): 3.7 µmol/L | Activity (SH-SY5Y [10]): 70% | Activity (SH-SY5Y [11]): inactive | inhibition (SH-SY5Y [12]): Active | Activity (SH-SY5Y [4]): 2.65 µmol/L | Activity (SH-SY5Y [5]): 3.68 µmol/L | inhibition (SH-SY5Y [13]): Active | Activity (SH-SY5Y [6]): 2.98 µmol/L | Activity (SH-SY5Y [14]): Non-toxic | Activity (SH-SY5Y [7]): 3.74 µmol/L | Activity (SH-SY5Y [15]): Active
